The text below walks through data of DBAASP.

In brackets after ≈: the same amount, converted by molar mass. Several values for one entry are separate records, joined by “and”; a condition that tells them apart may be missing. Identical values can stand only once.

Test in all cases: ≥ marks a high value that may be exact or a test limit, other limits are often not marked, values filed in µg/mL are converted to µM
Experiment [1] relates to Acinetobacter baumannii ATCC 19606.
Experiment [2] deals with Staphylococcus aureus ATCC 25923.
The subject of experiment [3] is Escherichia coli ATCC 25922.
The subject of experiment [4] is Klebsiella pneumoniae ATCC 13883.
Experiment [5] has as its system Candida albicans ATCC 2002.
Experiment [6] has as its system Bacillus subtilis.
For experiment [7], the system named is Staphylococcus aureus.
In experiment [8] the test system is Escherichia coli.
Experiment [9] relates to Candida albicans.
Experiment [10] concerns Pseudomonas aeruginosa PAO1.
Experiment [11] relates to Escherichia coli UB1005.
Experiment [12] has as its system Pseudomonas aeruginosa ATCC 27853.
Experiment [13] has as its system Pseudomonas aeruginosa.
The test system of experiment [14] is Staphylococcus epidermidis.

In general, MIC refers to the least concentration at which growth counts as inhibited. A low value points to greater potency. For the molecule `CC(C)C[C@H](NC(=O)[C@H](CCCN=C(N)N)NC(=O)[C@H](CCCN=C(N)N)NC(=O)[C@H](C)NC(=O)[C@H](Cc1c[nH]c2ccccc12)NC(=O)CNC(=O)[C@H](CCCN=C(N)N)NC(=O)[C@@H](N)CCCN=C(N)N)C(=O)N[C@@H](C)C(=O)N[C@@H](Cc1ccccc1)C(=O)N[C@@H](C)C(=O)N[C@@H](Cc1ccccc1)C(=O)NCC(=O)N[C@@H](CCCN=C(N)N)C(=O)N[C@@H](CCCN=C(N)N)C(N)=O` [RRGWARRLAFAFGRR], the MIC in experiment [1] is 13.8 µM and 22 µM; in experiment [2], more than 30 µM; in experiment [3] it was 12.5 µM and 30 µM; in [4] it was 30 µM (≈ 56.3 µg/mL).

`CC[C@H](C)[C@H](NC(=O)[C@@H](NC(=O)[C@@H](NC(=O)[C@@H]1CCCN1C(=O)[C@H](Cc1c[nH]c2ccccc12)NC(=O)[C@H](Cc1ccccc1)NC(=O)[C@H](CCCN=C(N)N)NC(=O)[C@H](CCCCN)NC(=O)[C@@H](NC(=O)[C@@H](N)CCCN=C(N)N)[C@@H](C)CC)C(C)C)C(C)C)C(=O)N[C@@H](CCCN=C(N)N)C(=O)N[C@H](C(=O)N[C@H](C(=O)N[C@H](C(=O)N[C@@H](C)C(=O)NCC(=O)O)C(C)C)C(C)C)[C@@H](C)O` [RIKRFWPVVIRTVVAG]: the MIC in experiment [5] was not below 79.1 µM.

Consider `CC[C@H](C)[C@H](NC(=O)[C@H](CO)NC(=O)CNC(=O)[C@H](CCCN=C(N)N)NC(=O)[C@@H](NC(=O)[C@H](CO)NC(=O)[C@@H](NC(=O)CNC(=O)[C@H](CO)NC(=O)[C@H](CC(C)C)NC(=O)[C@H](CC(C)C)NC(=O)CN)[C@@H](C)O)C(C)C)C(=O)O` [GLLSGTSVRGSI], for which the MIC turned out to be 15.7 µM (≈ 18 µg/mL) in [6], 15.7 µM (≈ 18 µg/mL) in [7], 31.4 µM (≈ 36 µg/mL) in experiment [8] and 7.85 µM (≈ 9 µg/mL) in experiment [9].

`CC(C)C[C@H](NC(=O)[C@H](Cc1ccc(O)cc1)NC(=O)[C@@H]1CCCN1C(=O)[C@@H]1CCCN1C(=O)[C@H](CCCCN)NC(=O)[C@H](CC(=O)O)NC(=O)[C@@H](N)C(C)C)C(=O)N1CCC[C@H]1C(=O)N[C@@H](CCCN=C(N)N)C(=O)N1CCC[C@H]1C(=O)N[C@@H](CCCN=C(N)N)C(=O)N1CCC[C@H]1C(=O)N1CCC[C@H]1C(=O)N[C@@H](CCCN=C(N)N)C(=O)N[C@@H](CCCN=C(N)N)C(=O)N[C@@H](CCCCN)C(=O)N[C@@H](Cc1ccc(O)cc1)C(=O)N[C@@H](CC(N)=O)C(=O)N[C@@H](CCCN=C(N)N)C(N)=O` [VDKPPYLPRPRPPRRKYNR]: the MIC in experiment [2] amounted to 13.3 µM (≈ 32 µg/mL); in [10] it was 26.6 µM (≈ 64 µg/mL); in experiment [11], 1.04 µM (≈ 2.5 µg/mL).

Regarding `CC[C@H](C)[C@H](NC(=O)[C@H](CCCCN)NC(=O)[C@H](C)NC(=O)[C@H](C)NC(=O)[C@@H](NC(=O)[C@H](Cc1ccccc1)NC(=O)CNC(=O)[C@H](CC(C)C)NC(=O)CNC(=O)[C@@H](NC(=O)[C@H](CCCCN)NC(=O)CNC(=O)[C@H](CC(C)C)NC(=O)[C@H](CC(N)=O)NC(=O)[C@H](CCCCN)NC(=O)[C@H](CC(C)C)NC(=O)[C@@H](NC(=O)[C@H](CO)NC(=O)[C@H](CC(C)C)NC(=O)[C@H](CCSC)NC(=O)[C@@H](N)CO)C(C)C)C(C)C)C(C)C)C(=O)N[C@@H](C)C(=O)N[C@@H](CCCCN)C(=O)N[C@@H](CCC(N)=O)C(=O)N[C@@H](C)C(=O)O` [SMLSVLKNLGKVGLGFVAAKIAKQA], the MIC in experiment [7] worked out at 100 µM (≈ 254 µg/mL); in experiment [8], 20 µM (≈ 50.9 µg/mL); in experiment [9] it was 100 µM (≈ 254 µg/mL).

As for `CC[C@H](C)[C@H](NC(=O)[C@@H](NC(=O)[C@@H](NC(=O)[C@@H]1CCCN1C(=O)[C@H](Cc1c[nH]c2ccccc12)NC(=O)[C@H](Cc1ccccc1)NC(=O)[C@H](CCCN=C(N)N)NC(=O)[C@H](CCCCN)NC(=O)[C@@H](NC(=O)[C@@H](N)CCCN=C(N)N)[C@@H](C)CC)C(C)C)C(C)C)C(=O)N[C@@H](CCCN=C(N)N)C(=O)N[C@H](C(=O)N[C@H](C(=O)N[C@H](C(=O)N[C@@H](C)C(=O)NCC(=O)N[C@@H](Cc1ccc(O)cc1)C(=O)O)C(C)C)C(C)C)[C@@H](C)O` [RIKRFWPVVIRTVVAGY], the MIC in experiment [5] is not below 36.4 µM.

As for `CC[C@H](C)[C@@H]1NC(=O)[C@H](CCCCN)NC(=O)[C@@H](NC(=O)[C@H](CCCCN)NC(=O)[C@H](CC(C)C)NC(=O)[C@H](CC(N)=O)NC(=O)[C@H](CC(=O)O)NC(=O)[C@H](CC(C)C)NC(=O)[C@H](CC(C)C)NC(=O)[C@@H](NC(=O)[C@@H](NC(=O)[C@H](C)NC(=O)[C@@H](NC(=O)[C@H](CC(N)=O)NC(=O)[C@H](CCCCN)NC(=O)[C@H](C)NC(=O)[C@H](C)NC(=O)[C@H](CC(N)=O)NC(=O)[C@H](CCCCN)NC(=O)[C@H](C)NC(=O)[C@@H](NC(=O)[C@H](CC(=O)O)NC(=O)[C@H](CCSC)NC(=O)[C@H](Cc2ccccc2)NC(=O)CN)[C@@H](C)O)C(C)C)C(C)C)[C@@H](C)O)CSSC[C@@H](C(=O)O)NC(=O)[C@H](C)NC(=O)[C@H](CCCCN)NC(=O)[C@H]([C@@H](C)O)NC1=O` [GFMDTAKNAAKNVAVTLLDNLKCKITKAC], the MIC in experiment [6] stood at 2.72 µM (≈ 8.39 µg/mL); in experiment [7], 0.681 µM (≈ 2.1 µg/mL); in [8], 1.36 µM (≈ 4.2 µg/mL); in experiment [9], 0.341 µM (≈ 1.05 µg/mL).

With `CC[C@H](C)[C@H](NC(=O)[C@H](CC(C)C)NC(=O)[C@@H]1CCCN1C(=O)[C@H](CS)NC(=O)[C@H](CC(C)C)NC(=O)CNC(=O)[C@@H]1CCCN1C(=O)[C@H](CCCCN)NC(=O)[C@H](CCCCN)NC(=O)[C@@H]1CCCN1C(=O)[C@H](CCCN=C(N)N)NC(=O)[C@H](CC(=O)O)NC(=O)[C@@H](N)CCCCN)C(=O)N[C@@H](Cc1c[nH]c2ccccc12)C(=O)N[C@@H](Cc1c[nH]c2ccccc12)C(=O)N[C@@H](CC(C)C)C(=O)N[C@H](C(=O)N[C@H](C(=O)N[C@@H](CCCCN)C(=O)N[C@H](C(=O)NCC(N)=O)C(C)C)[C@@H](C)CC)[C@@H](C)CC` [KDRPKKPGLCPLIWWLIIKVG], the MIC is 25.4 µM (≈ 62.5 µg/mL) in experiment [12]; 50.8 µM (≈ 125 µg/mL) in experiment [2]; 6.35 µM (≈ 15.6 µg/mL) in [3]; 50.8 µM (≈ 125 µg/mL) in experiment [7]; 12.7 µM (≈ 31.2 µg/mL) in [8]; 102 µM (≈ 250 µg/mL) in experiment [9]. The molecule also returned an MIC in experiment [13] of 25.4 µM (≈ 62.5 µg/mL).

`CC[C@H](C)[C@H](NC(=O)[C@H](CC(=O)O)NC(=O)[C@H](CC(C)C)NC(=O)[C@H](Cc1ccccc1)NC(=O)CN)C(=O)N[C@H](C(=O)N[C@@H](CCCCN)C(=O)NCC(=O)N[C@H](C(=O)NCC(=O)N[C@@H](CCCCN)C(=O)N[C@H](C(=O)N[C@@H](C)C(=O)N[C@@H](CC(C)C)C(=O)NCC(=O)N[C@@H](C)C(=O)N[C@H](C(=O)N[C@@H](CO)C(=O)N[C@@H](CCCCN)C(=O)N[C@@H](CC(C)C)C(=O)N[C@@H](Cc1ccccc1)C(N)=O)C(C)C)C(C)C)C(C)C)C(C)C` [GFLDIVKGVGKVALGAVSKLF]: the minimal inhibitory concentration (MIC) in experiment [7] was determined as 3.78 µM (≈ 8 µg/mL); in experiment [8], 15.1 µM (≈ 32 µg/mL); in experiment [9] it was 3.78 µM (≈ 8 µg/mL).

As to `CC[C@H](C)[C@H](N)C(=O)N[C@@H](CC(N)=O)C(=O)N[C@@H](Cc1c[nH]c2ccccc12)C(=O)N[C@@H](CCCCN)C(=O)N[C@@H](CCCCN)C(=O)N[C@H](C(=O)N[C@@H](C)C(=O)N[C@@H](CO)C(=O)N[C@H](C(=O)NCC(=O)N[C@@H](CCCCN)C(=O)N[C@@H](CCC(=O)O)C(=O)N[C@H](C(=O)N[C@@H](CC(C)C)C(N)=O)C(C)C)[C@@H](C)CC)[C@@H](C)CC` [INWKKIASIGKEVL], the MIC in experiment [6] was not below 100 µM; in experiment [8], 100 µM (≈ 160 µg/mL).

In turn, `CC[C@H](C)[C@H](NC(=O)[C@H](CO)NC(=O)[C@@H](NC(=O)[C@H](CCCCN)NC(=O)[C@H](Cc1ccccc1)NC(=O)[C@@H]1CCCN1C(=O)[C@@H](N)CCC(=O)O)[C@@H](C)CC)C(=O)N[C@@H](Cc1cnc[nH]1)C(=O)N[C@@H](CC(C)C)C(=O)NCC(=O)NCC(=O)N[C@@H](Cc1ccc(O)cc1)C(N)=O` [EPFKISIHLGGY] displayed a minimal inhibitory concentration (MIC) in experiment [14] not below 220 µM.

Regarding `CC[C@H](C)[C@H](NC(=O)[C@H](CCCN=C(N)N)NC(=O)[C@H](CCCCN)NC(=O)[C@@H]1CCCN1C(=O)[C@@H]1CCCN1C(=O)[C@H](CCCN=C(N)N)NC(=O)[C@@H]1CCCN1C(=O)[C@H](CCCN=C(N)N)NC(=O)[C@@H]1CCCN1C(=O)[C@H](CC(C)C)NC(=O)[C@H](Cc1ccc(O)cc1)NC(=O)[C@@H]1CCCN1C(=O)[C@@H]1CCCN1C(=O)[C@H](CCCCN)NC(=O)[C@H](CC(=O)O)NC(=O)[C@@H](N)C(C)C)C(=O)N[C@@H](Cc1ccc(O)cc1)C(=O)N[C@@H](CC(N)=O)C(=O)N[C@@H](CCCN=C(N)N)C(N)=O` [VDKPPYLPRPRPPKRIYNR], the values for the minimal inhibitory concentration (MIC) in experiment [2], in [10] and in [11] were 27.1 µM (≈ 64 µg/mL), 27.1 µM (≈ 64 µg/mL) and 0.254 µM (≈ 0.6 µg/mL), respectively.

With `CC[C@H](C)[C@H](NC(=O)[C@H](CCCCN)NC(=O)[C@H](CS)NC(=O)[C@H](C)NC(=O)[C@@H](NC(=O)[C@H](Cc1ccccc1)NC(=O)CNC(=O)[C@H](CC(C)C)NC(=O)CNC(=O)[C@@H](NC(=O)[C@H](CCCCN)NC(=O)CNC(=O)[C@H](CC(C)C)NC(=O)[C@H](CC(N)=O)NC(=O)[C@H](CCCCN)NC(=O)[C@H](CC(C)C)NC(=O)[C@@H](NC(=O)[C@H](CCCCN)NC(=O)[C@H](CC(C)C)NC(=O)[C@H](CCSC)NC(=O)[C@@H](N)CO)C(C)C)C(C)C)C(C)C)C(=O)N[C@@H](CC(N)=O)C(=O)N[C@@H](CCCCN)C(=O)N[C@@H](CCC(N)=O)C(=O)N[C@@H](CS)C(=O)O` [SMLKVLKNLGKVGLGFVACKINKQC], the MIC in experiment [7] worked out at 20 µM (≈ 53.8 µg/mL); in [8] it was 10 µM (≈ 26.9 µg/mL); in experiment [9] it was 40 µM (≈ 108 µg/mL).
